pIC50: −log10 of the molar value. Where a SMILES comes first, the peptide text is derived from it.
Molecular target: HLA B*0801 (Homo sapiens, UniProt P01889, A93T/A95T/D138N/E176V/E187T/K202T/Q94N/R180D/S35A/V36M/Y33D/Y91F)
Assay: biochemical
Assay type: binding

| Compound | pIC50 |
| --- | --- |
| CSCC[C@H](N)C(=O)N[C@@H](Cc1ccccc1)C(=O)NCC(=O)N[C@H](C(=O)N[C@@H](CCCNC(=N)N)C(=O)N[C@@H](CCCCN)C(=O)N[C@@H](CC(N)=O)C(=O)N[C@@H](CO)C(=O)N[C@@H](Cc1ccccc1)C(=O)O)[C@@H](C)O [3102.0718] (H-MFGTRKNSF-OH) | 8.70 |
| CC[C@H](C)[C@H](NC(=O)[C@H](CCCCN)NC(=O)[C@@H]1CCCN1C(=O)[C@@H](N)CCC(=O)O)C(=O)N[C@@H](CO)C(=O)N[C@@H](CC(C)C)C(=O)N[C@@H](CC(C)C)C(=O)N1CCC[C@H]1C(=O)N[C@@H](CC(C)C)C(=O)O [3102.0719] (H-EPKISLLPL-OH) | 8.07 |
| CC[C@H](C)[C@H](NC(=O)[C@H](CC(N)=O)NC(=O)[C@H](CC(C)C)NC(=O)[C@H](CCCCN)NC(=O)[C@H](CC(N)=O)NC(=O)[C@H](CCSC)NC(=O)[C@@H](NC(=O)[C@@H](N)CC(N)=O)[C@@H](C)CC)C(=O)N[C@H](C(=O)O)C(C)C [3102.0721] (H-NIMNKLNIV-OH) | 8.24 |
| CC(C)C[C@H](NC(=O)[C@H](CCCNC(=N)N)NC(=O)[C@H](C)NC(=O)[C@H](CC(N)=O)NC(=O)[C@H](CCCNC(=N)N)NC(=O)[C@H](C)NC(=O)CNC(=O)[C@@H]1CCCN1C(=O)[C@@H](N)CC(N)=O)C(=O)O [3102.0722] (H-NPGARNARL-OH) | 8.21 |
| CC[C@H](C)[C@H](NC(=O)[C@H](CCC(=O)O)NC(=O)[C@H](CCSC)NC(=O)[C@H](CCCNC(=N)N)NC(=O)[C@@H](N)CC(N)=O)C(=O)N[C@@H](Cc1ccccc1)C(=O)N[C@@H](CC(C)C)C(=O)N[C@H](C(=O)N[C@@H](CC(C)C)C(=O)O)C(C)C [3102.0723] (H-NRMEIFLVL-OH) | 8.31 |
| CSCC[C@H](NC(=O)[C@H](CC(C)C)NC(=O)[C@@H](N)CCSC)C(=O)N[C@@H](CCC(=O)O)C(=O)N[C@H](C(=O)N[C@@H](Cc1ccccc1)C(=O)N1CCC[C@H]1C(=O)N[C@@H](CCC(N)=O)C(=O)N[C@@H](CC(C)C)C(=O)O)C(C)C [3102.0725] (H-MLMEVFPQL-OH) | 7.89 |
| CC[C@H](C)[C@H](NC(=O)[C@H](CC(C)C)NC(=O)[C@H](Cc1c[nH]cn1)NC(=O)[C@H](CCCCN)NC(=O)[C@H](Cc1ccc(O)cc1)NC(=O)[C@@H](NC(=O)[C@@H]1CCCN1C(=O)[C@@H](N)CCSC)[C@@H](C)O)C(=O)N[C@@H](CCSC)C(=O)O [3102.0727] (H-MPTYKHLIM-OH) | 9.89 |
| CSCC[C@H](NC(=O)[C@H](Cc1ccccc1)NC(=O)CN)C(=O)N[C@@H](CCCNC(=N)N)C(=O)N[C@@H](Cc1ccccc1)C(=O)N[C@@H](Cc1ccccc1)C(=O)N[C@@H](CCC(N)=O)C(=O)N[C@@H](CC(C)C)C(=O)N[C@@H](CC(C)C)C(=O)O [3102.0728] (H-GFMRFFQLL-OH) | 8.62 |
| CC(C)C[C@H](NC(=O)[C@@H](NC(=O)[C@@H](NC(=O)[C@H](CC(N)=O)NC(=O)[C@H](Cc1ccccc1)NC(=O)[C@H](CC(C)C)NC(=O)[C@H](CCCCN)NC(=O)[C@H](CC(C)C)NC(=O)[C@@H](N)CCC(=O)O)C(C)C)[C@@H](C)O)C(=O)O [3102.0729] (H-ELKLFNVTL-OH) | 8.33 |
| CC[C@H](C)[C@H](NC(=O)[C@H](CC(C)C)NC(=O)[C@@H](N)CO)C(=O)N1CCC[C@H]1C(=O)N[C@@H](CCCNC(=N)N)C(=O)N[C@@H](CC(C)C)C(=O)N[C@H](C(=O)N[C@@H](CC(=O)O)C(=O)N[C@@H](Cc1ccccc1)C(=O)O)C(C)C [3102.0730] (H-SLIPRLVDF-OH) | 7.89 |
| CSCC[C@H](NC(=O)[C@H](Cc1ccccc1)NC(=O)CNC(=O)[C@@H](N)[C@@H](C)O)C(=O)N[C@@H](CCCNC(=N)N)C(=O)N[C@@H](Cc1ccccc1)C(=O)N[C@@H](Cc1ccccc1)C(=O)N[C@@H](CCC(N)=O)C(=O)N[C@@H](CC(C)C)C(=O)O [3102.0731] (H-TGFMRFFQL-OH) | 9.01 |
| CC[C@H](C)[C@H](NC(=O)[C@H](CCC(N)=O)NC(=O)[C@H](CCC(=O)O)NC(=O)[C@H](CCC(N)=O)NC(=O)[C@H](CCCNC(=N)N)NC(=O)[C@H](CCCNC(=N)N)NC(=O)[C@H](CCSC)NC(=O)CNC(=O)[C@@H](N)CO)C(=O)O [3102.0733] (H-SGMRRQEQI-OH) | 7.77 |
| CC(C)C[C@H](NC(=O)[C@H](CO)NC(=O)CNC(=O)[C@@H]1CCCN1C(=O)[C@H](CCCNC(=N)N)NC(=O)[C@H](Cc1ccccc1)NC(=O)[C@H](CCCCN)NC(=O)[C@H](Cc1ccccc1)NC(=O)[C@@H](N)CO)C(=O)O [3102.0734] (H-SFKFRPGSL-OH) | 8.52 |
| CC[C@H](C)[C@H](NC(=O)[C@H](CC(=O)O)NC(=O)[C@H](CC(N)=O)NC(=O)[C@@H](NC(=O)[C@H](CCCCN)NC(=O)[C@@H](NC(=O)[C@H](CCCCN)NC(=O)[C@@H]1CCCN1C(=O)[C@@H](N)CCCNC(=N)N)[C@@H](C)CC)[C@@H](C)O)C(=O)O [3102.0737] (H-RPKIKTNDI-OH) | 8.68 |
| CSCC[C@H](NC(=O)[C@H](CCCCN)NC(=O)[C@@H](N)CCC(=O)O)C(=O)N[C@@H](CCCNC(=N)N)C(=O)N[C@@H](CCCNC(=N)N)C(=O)N[C@@H](CCC(=O)O)C(=O)N[C@@H](CCCNC(=N)N)C(=O)N[C@@H](C)C(=O)N[C@@H](C)C(=O)O [3102.0739] (H-EKMRRERAA-OH) | 8.74 |
| CC[C@H](C)[C@H](NC(=O)[C@H](CCCNC(=N)N)NC(=O)[C@@H](NC(=O)[C@H](CCCCN)NC(=O)[C@H](CC(C)C)NC(=O)[C@@H](N)CCCNC(=N)N)[C@@H](C)O)C(=O)N[C@@H](CCCNC(=N)N)C(=O)N[C@@H](CC(N)=O)C(=O)N[C@@H](CC(C)C)C(=O)O [3102.0740] (H-RLKTRIRNL-OH) | 9.16 |
| CC[C@H](C)[C@H](NC(=O)[C@H](CCCNC(=N)N)NC(=O)[C@@H](NC(=O)[C@H](CCCCN)NC(=O)[C@H](CCCCN)NC(=O)[C@@H](N)CO)[C@@H](C)O)C(=O)N[C@@H](CO)C(=O)N[C@@H](CC(=O)O)C(=O)N[C@@H](CC(C)C)C(=O)O [3102.0741] (H-SKKTRISDL-OH) | 8.55 |
| CC(C)C[C@H](NC(=O)[C@H](CCC(=O)O)NC(=O)[C@@H](NC(=O)[C@H](CC(C)C)NC(=O)[C@H](CCCCN)NC(=O)[C@H](CCCNC(=N)N)NC(=O)[C@H](CCCCN)NC(=O)[C@H](C)NC(=O)[C@@H](N)CCC(=O)O)[C@@H](C)O)C(=O)O [3102.0742] (H-EAKRKLTEL-OH) | 8.60 |
| CC[C@H](C)[C@H](NC(=O)[C@H](CCCNC(=N)N)NC(=O)[C@H](CO)NC(=O)[C@H](CCCNC(=N)N)NC(=O)[C@H](CC(C)C)NC(=O)[C@H](C)N)C(=O)N[C@@H](CCCNC(=N)N)C(=O)N[C@@H](CCC(=O)O)C(=O)N[C@@H](CC(C)C)C(=O)O [3102.0743] (H-ALRSRIREL-OH) | 9.34 |
| CSCC[C@H](NC(=O)[C@H](CC(N)=O)NC(=O)[C@H](Cc1ccccc1)NC(=O)[C@H](Cc1ccccc1)NC(=O)[C@H](CCCNC(=N)N)NC(=O)[C@H](CO)NC(=O)[C@H](CC(C)C)NC(=O)[C@H](CC(C)C)NC(=O)[C@H](C)N)C(=O)O [3102.0744] (H-ALLSRFFNM-OH) | 8.52 |
| CC(C)C[C@H](NC(=O)[C@H](Cc1ccc(O)cc1)NC(=O)[C@@H](NC(=O)[C@H](Cc1ccccc1)NC(=O)[C@H](CCCCN)NC(=O)[C@H](CC(C)C)NC(=O)[C@H](CC(C)C)NC(=O)[C@H](C)NC(=O)[C@@H](N)Cc1ccccc1)[C@@H](C)O)C(=O)O [3102.0745] (H-FALLKFTYL-OH) | 8.80 |
| CC(C)C[C@H](NC(=O)[C@@H](NC(=O)[C@H](CCCCN)NC(=O)[C@H](Cc1ccccc1)NC(=O)[C@H](CCCCN)NC(=O)[C@@H](NC(=O)[C@H](CC(N)=O)NC(=O)[C@H](CC(C)C)NC(=O)[C@@H](N)CO)[C@@H](C)O)[C@@H](C)O)C(=O)O [3102.0746] (H-SLNTKFKTL-OH) | 8.06 |
| CC(C)C[C@H](NC(=O)[C@H](CC(N)=O)NC(=O)[C@@H](NC(=O)[C@H](CC(C)C)NC(=O)[C@H](CCCNC(=N)N)NC(=O)[C@H](CCC(N)=O)NC(=O)[C@H](CCCCN)NC(=O)[C@H](CC(C)C)NC(=O)[C@@H](N)[C@@H](C)O)[C@@H](C)O)C(=O)O [3102.0747] (H-TLKQRLTNL-OH) | 8.77 |
| CSCC[C@H](NC(=O)[C@H](CC(N)=O)NC(=O)[C@@H](N)CCC(=O)O)C(=O)N[C@@H](CC(C)C)C(=O)N[C@@H](CCCNC(=N)N)C(=O)N[C@@H](CO)C(=O)N[C@@H](CCSC)C(=O)N1CCC[C@H]1C(=O)N[C@H](C(=O)O)C(C)C [3102.0748] (H-ENMLRSMPV-OH) | 9.68 |
| CSCC[C@H](NC(=O)[C@H](CCCNC(=N)N)NC(=O)[C@H](Cc1ccccc1)NC(=O)[C@@H]1CCCN1C(=O)[C@H](CCSC)NC(=O)[C@H](CCCCN)NC(=O)[C@H](CC(C)C)NC(=O)[C@@H](N)CC(C)C)C(=O)N[C@H](C(=O)O)C(C)C [3102.0749] (H-LLKMPFRMV-OH) | 8.15 |
| CC(C)C[C@H](NC(=O)[C@@H](NC(=O)[C@H](CO)NC(=O)[C@H](Cc1ccccc1)NC(=O)[C@H](CC(C)C)NC(=O)[C@H](CO)NC(=O)[C@H](CC(C)C)NC(=O)[C@H](CC(C)C)NC(=O)[C@@H](N)Cc1ccc(O)cc1)[C@@H](C)O)C(=O)O [3102.0750] (H-YLLSLFSTL-OH) | 8.40 |
| CSCC[C@H](N)C(=O)N[C@@H](CC(C)C)C(=O)N[C@@H](CC(C)C)C(=O)N[C@@H](CCCCN)C(=O)N[C@@H](CCCCN)C(=O)N[C@@H](CC(C)C)C(=O)N[C@@H](CC(N)=O)C(=O)N[C@@H](CO)C(=O)N[C@@H](Cc1ccccc1)C(=O)O [3102.0753] (H-MLLKKLNSF-OH) | 9.24 |
| CC(C)C[C@H](NC(=O)[C@H](CO)NC(=O)[C@H](C)NC(=O)[C@H](Cc1ccccc1)NC(=O)[C@H](CCCCN)NC(=O)[C@H](C)NC(=O)[C@H](Cc1ccc(O)cc1)NC(=O)[C@@H](NC(=O)[C@@H](N)[C@@H](C)O)C(C)C)C(=O)O [3102.0754] (H-TVYAKFASL-OH) | 8.80 |
| CC(C)C[C@H](NC(=O)[C@H](CCCNC(=N)N)NC(=O)[C@H](Cc1c[nH]cn1)NC(=O)[C@H](CC(C)C)NC(=O)[C@H](Cc1ccc(O)cc1)NC(=O)[C@H](CCCNC(=N)N)NC(=O)[C@H](CCCNC(=N)N)NC(=O)[C@@H]1CCCN1C(=O)[C@@H](N)CS)C(=O)O [3102.0755] (H-CPRRYLHRL-OH) | 8.57 |
| CC[C@H](C)[C@H](NC(=O)[C@@H](NC(=O)[C@H](C)N)[C@@H](C)O)C(=O)N[C@@H](CCC(N)=O)C(=O)N[C@@H](CCCNC(=N)N)C(=O)N[C@@H](Cc1ccccc1)C(=O)N[C@@H](CO)C(=O)N[C@@H](CO)C(=O)N[C@@H](CC(C)C)C(=O)O [3102.0756] (H-ATIQRFSSL-OH) | 8.48 |

Reference: article PMC2248166, “Quantitative peptide binding motifs for 19 human and mouse MHC class I molecules derived using positional scanning combinatorial peptide libraries” (Immunome Research, 2008)
